Measurements: PMC9225722, “Synthesis and biological evaluation of thieno[3,2-c]pyrazol-3-amine derivatives as potent glycogen synthase kinase 3β inhibitors for Alzheimer’s disease” (Journal of Enzyme Inhibition and Medicinal Chemistry, 2022)

Key:
GSK-3β = GSK-3β (Homo sapiens, UniProt P49841); assay: GSK-3β kinase assay (calliper mobility shift assay); assay type: biochemical; conditions: for IC50: mean ± SD from two separate experiments, calliper mobility shift assay; for fold less active than 16b (GSK-3β inhibition): compared with 16b
[1] = tested on: phosphorylation of GSK-3β at Ser9; assay: Western blot of p-GSK-3β (Ser9) in SH-SY5Y cells; assay type: cell-based, human; conditions: LiCl positive control, concentration not given; 2.5 h; control 0.33
Text: GSK-3β is activated by phosphorylation at Tyr216 and is inhibited by phosphorylation at Ser9 [48]. As one of the substrates of Akt (protein kinase B), GSK-3 can inhibit Akt[49]. The inhibition of GSK-3β increases the p-Akt expression and activates the PI3K/Akt pathway, and that, in turn, phosphorylates the GSK-3β at the Ser9 site[50]^,[51]. […] As shown in Figure 6(A), LiCl greatly promoted GSK-3β phosphorylation at Ser9 (p-GSK-3β/GAPDH: 0.60 vs 0.33). […] Therefore, in cellular level, compound 16b was confirmed to have a direct effect on GSK-3β.
Figure 6. (A) The effect of 16b on phosphorylation of GSK-3β at Ser9; (B) the effect of 16b on β-catenin abundance. Protein expressions were detected by immunoblot analysis with a specific antibody. Values are reported as the mean ± SD of three independent experiments. *p < 0.05, **p < 0.01, ***p < 0.001 vs control.
SH-SY5Y cells (1 × 10^6) were seeded in 12-well plates (Corning, Los Altos, MA, USA) and incubated with compound 16b or LiCl at the indicated concentrations for 2.5 h at 37 °C in 5% CO2. At the end of incubation, cells were lysed by addition of ice-cold RIPA buffer containing a protease inhibitor cocktail. The protein quantification was determined using a BCA protein assay kit (Jiangsu KeyGEN BioTECH Co., Ltd., Nanjing, China). Cellular lysates were mixed with an equal volume of SDS (sodium dodecyl sulfate) loading buffer (Jiangsu KeyGEN BioTECH Co., Ltd., Nanjing, China) and separated by electrophoresis (Bio-rad Power Supplies Basic, Shanghai, China) in polyacrylamide gel. Proteins were transferred from acrylamide gels to nitrocellulose membranes and blocked in a blocking buffer (PBS, 5% non-fat milk) for 1.5 to 2 h at 20 °C. […] The blots were washed by TBST for 20 min and detected with ECL chemiluminescent reagent (Jiangsu KeyGEN BioTECH Co., Ltd., Nanjing, China) for 3 min. Pixel intensity was quantitated using gel imaging system (SYNGENE G:BOX/iChemi XR5, ISS, San Diego, CA, US) and Gel-Pro32 software (Media Cybernetics, Bethesda, MD, USA). […]

GSK-3β, sequence (P49841 whole entry): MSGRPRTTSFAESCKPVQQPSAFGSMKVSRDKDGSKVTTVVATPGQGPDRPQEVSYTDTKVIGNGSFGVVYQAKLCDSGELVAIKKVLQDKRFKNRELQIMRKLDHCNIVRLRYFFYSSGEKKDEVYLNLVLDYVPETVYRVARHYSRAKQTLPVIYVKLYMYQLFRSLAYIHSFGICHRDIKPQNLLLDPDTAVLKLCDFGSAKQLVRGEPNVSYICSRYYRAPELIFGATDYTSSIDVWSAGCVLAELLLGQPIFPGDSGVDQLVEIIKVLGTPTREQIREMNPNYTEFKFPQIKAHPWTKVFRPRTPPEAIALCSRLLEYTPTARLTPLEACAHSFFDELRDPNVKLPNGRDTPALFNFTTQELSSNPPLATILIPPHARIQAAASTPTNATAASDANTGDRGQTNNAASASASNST

SMILES | melting point [°C] | IC50 (GSK-3β) [µM] | also measured
CCCS(=O)(=O)Nc1n[nH]c2cc(-c3cccnc3)sc12 [Compound 16d, N-(5-(pyridin-3-yl)-1H-thieno[3,2-c]pyrazol-3-yl)propane-1-sulphonamide] | 208 to 210 | 1.39 ± 0.0552 | GSK-3β inhibitory activity (in words) (GSK-3β): very weak
O=C(Nc1n[nH]c2cc(-c3cncc(-c4ccccc4)c3)sc12)C1CC1 [Compound 17a, N-(5-(5-Phenylpyridin-3-yl)-1H-thieno[3,2-c]pyrazol-3-yl)cyclopropanecarboxamide] | > 240 | 0.02 ± 0.0011 | fold less active than 16a (GSK-3β inhibition) (GSK-3β; compared with 16a): about 4 fold
CC(C)C(=O)Nc1n[nH]c2cc(-c3cncc(-c4ccccc4)c3)sc12 [Compound 17b, N-(5-(5-Phenylpyridin-3-yl)-1H-thieno[3,2-c]pyrazol-3-yl)isobutyramide] | > 240 | 0.014 ± 0.0006 | fold less active than 16b (GSK-3β inhibition) (GSK-3β): about 4 fold
CCCC(=O)Nc1n[nH]c2cc(-c3cncc(-c4ccccc4)c3)sc12 [Compound 17c, N-(5-(5-Phenylpyridin-3-yl)-1H-thieno[3,2-c]pyrazol-3-yl)butyramide] | > 240 | 0.037 ± 0.0013 | 
CC(C)C(=O)Nc1n[nH]c2cc(-c3cnccc3-c3ccccc3)sc12 [Compound 18a, N-(5-(4-Phenylpyridin-3-yl)-1H-thieno[3,2-c]pyrazol-3-yl)isobutyramide] | > 240 | 0.084 ± 0.0032 | 
Cc1cccc(-c2ccncc2-c2cc3[nH]nc(NC(=O)C(C)C)c3s2)c1 [Compound 18c, N-(5-(4-(3-Methylphenyl)pyridin-3-yl)-1H-thieno[3,2-c]pyrazol-3-yl)isobutyramide] | 236 to 238 | 0.153 ± 0.0066 | 
COc1ccccc1-c1ccncc1-c1cc2[nH]nc(NC(=O)C(C)C)c2s1 [Compound 18e, N-(5-(4-(2-Methoxyphenyl)pyridin-3-yl)-1H-thieno[3,2-c]pyrazol-3-yl)isobutyramide] | 213 to 215 | 0.064 ± 0.0027 | 
COc1cccc(-c2ccncc2-c2cc3[nH]nc(NC(=O)C(C)C)c3s2)c1 [Compound 18f, N-(5-(4-(3-Methoxyphenyl)pyridin-3-yl)-1H-thieno[3,2-c]pyrazol-3-yl)isobutyramide] | 212 to 214 | 0.113 ± 0.0086 | 
COc1ccc(-c2ccncc2-c2cc3[nH]nc(NC(=O)C(C)C)c3s2)cc1 [Compound 18g, N-(5-(4-(4-Methoxyphenyl)pyridin-3-yl)-1H-thieno[3,2-c]pyrazol-3-yl)isobutyramide] | > 240 | 0.105 ± 0.0052 | 
CC(C)C(=O)Nc1n[nH]c2cc(-c3cnccc3-c3ccccc3F)sc12 [Compound 18h, N-(5-(4-(2-Fluorophenyl)pyridin-3-yl)-1H-thieno[3,2-c]pyrazol-3-yl)isobutyramide] | > 240 | 0.094 ± 0.0035 | 
CC(C)C(=O)Nc1n[nH]c2cc(-c3cnccc3-c3cccc(F)c3)sc12 [Compound 18i, N-(5-(4-(3-Fluorophenyl)pyridin-3-yl)-1H-thieno[3,2-c]pyrazol-3-yl)isobutyramide] | > 240 | 0.173 ± 0.0068 | 
CC(C)C(=O)Nc1n[nH]c2cc(-c3cnccc3-c3ccc(F)cc3)sc12 [Compound 18j, N-(5-(4-(4-Fluorophenyl)pyridin-3-yl)-1H-thieno[3,2-c]pyrazol-3-yl)isobutyramide] | > 240 | 0.015 ± 0.0003 | 
[Cl-].[Li+] [LiCl, reference compound] |  |  | p-GSK-3β/GAPDH ratio (Ser9) [1]: 0.60

Now from value to compound, other results behind:

melting point [°C] | IC50 (GSK-3β) [µM] | SMILES | also measured
224 to 226 | 0.0044 ± 0.0002 | O=C(Nc1n[nH]c2cc(-c3cccnc3)sc12)C1CC1 [Compound 16a, N-(5-(pyridin-3-yl)-1H-thieno[3,2-c]pyrazol-3-yl)cyclopropanecarboxamide] | 
238 to 240 | 0.036 ± 0.0017 | CCCC(=O)Nc1n[nH]c2cc(-c3cccnc3)sc12 [Compound 16c, N-(5-(pyridin-3-yl)-1H-thieno[3,2-c]pyrazol-3-yl)butyramide] | fold less active than 16b (GSK-3β inhibition) (GSK-3β): about 10 fold
> 240 | 0.033 ± 0.0016 | O=C(Nc1n[nH]c2cc(-c3cccnc3)sc12)c1ccccc1 [Compound 16e, N-(5-(pyridin-3-yl)-1H-thieno[3,2-c]pyrazol-3-yl)benzamide] | fold less active than 16b (GSK-3β inhibition) (GSK-3β): about 10 fold
112 to 114 | > 5 | CCCS(=O)(=O)Nc1n[nH]c2cc(-c3cncc(-c4ccccc4)c3)sc12 [Compound 17d, N-(5-(5-Phenylpyridin-3-yl)-1H-thieno[3,2-c]pyrazol-3-yl)propane-1-sulphonamide] | GSK-3β inhibitory activity (in words) (GSK-3β): not active
> 240 | 0.064 ± 0.0023 | Cc1ccccc1-c1ccncc1-c1cc2[nH]nc(NC(=O)C(C)C)c2s1 [Compound 18b, N-(5-(4-(2-Methylphenyl)pyridin-3-yl)-1H-thieno[3,2-c]pyrazol-3-yl)isobutyramide] | 
239 to 240 | 0.099 ± 0.0048 | Cc1ccc(-c2ccncc2-c2cc3[nH]nc(NC(=O)C(C)C)c3s2)cc1 [Compound 18d, N-(5-(4-(4-Methylphenyl)pyridin-3-yl)-1H-thieno[3,2-c]pyrazol-3-yl)isobutyramide] | 
202 to 204 | 0.107 ± 0.0061 | CC(C)C(=O)Nc1n[nH]c2cc(-c3cnccc3-c3cccc(C(F)(F)F)c3)sc12 [Compound 18k, N-(5-(4-(3-(trifluoromethyl)phenyl)pyridin-3-yl)-1H-thieno[3,2-c]pyrazol-3-yl)isobutyramide] | 
> 240 | 0.158 ± 0.0089 | CC(C)C(=O)Nc1n[nH]c2cc(-c3cnccc3-c3ccc(C(F)(F)F)cc3)sc12 [Compound 18l, N-(5-(4-(4-(trifluoromethyl)phenyl)pyridin-3-yl)-1H-thieno[3,2-c]pyrazol-3-yl)isobutyramide] | 
159 to 161 | 0.387 ± 0.0212 | CC(C)C(=O)Nc1n[nH]c2cc(-c3cnccc3-c3ccc(-c4ccccc4)cc3)sc12 [Compound 18m, N-(5-(4-([1,1'-Biphenyl]-4-yl)pyridin-3-yl)-1H-thieno[3,2-c]pyrazol-3-yl)isobutyramide] | 
> 240 | 0.195 ± 0.0104 | CC(C)C(=O)Nc1n[nH]c2cc(-c3cnccc3-c3ccc4ccccc4c3)sc12 [Compound 18n, N-(5-(4-(naphthalen-2-yl)pyridin-3-yl)-1H-thieno[3,2-c]pyrazol-3-yl)isobutyramide] | fold less active than 18a (GSK-3β inhibition) (GSK-3β; compared with 18a): about 2 fold
